In patent publication US20060045953A1 (priority 2004, published 2006):

Biological target: T1, hT1R1/hT1R3 umami receptor (Homo sapiens, UniProt Q7RTX0+Q7RTX1)
T1 construct: expressed in transfected cells; host or cells: HEK293 derivative stably expressing Gα15, clone I-17, expression induced with mifepristone
T1 sequence (Q7RTX1 21-841): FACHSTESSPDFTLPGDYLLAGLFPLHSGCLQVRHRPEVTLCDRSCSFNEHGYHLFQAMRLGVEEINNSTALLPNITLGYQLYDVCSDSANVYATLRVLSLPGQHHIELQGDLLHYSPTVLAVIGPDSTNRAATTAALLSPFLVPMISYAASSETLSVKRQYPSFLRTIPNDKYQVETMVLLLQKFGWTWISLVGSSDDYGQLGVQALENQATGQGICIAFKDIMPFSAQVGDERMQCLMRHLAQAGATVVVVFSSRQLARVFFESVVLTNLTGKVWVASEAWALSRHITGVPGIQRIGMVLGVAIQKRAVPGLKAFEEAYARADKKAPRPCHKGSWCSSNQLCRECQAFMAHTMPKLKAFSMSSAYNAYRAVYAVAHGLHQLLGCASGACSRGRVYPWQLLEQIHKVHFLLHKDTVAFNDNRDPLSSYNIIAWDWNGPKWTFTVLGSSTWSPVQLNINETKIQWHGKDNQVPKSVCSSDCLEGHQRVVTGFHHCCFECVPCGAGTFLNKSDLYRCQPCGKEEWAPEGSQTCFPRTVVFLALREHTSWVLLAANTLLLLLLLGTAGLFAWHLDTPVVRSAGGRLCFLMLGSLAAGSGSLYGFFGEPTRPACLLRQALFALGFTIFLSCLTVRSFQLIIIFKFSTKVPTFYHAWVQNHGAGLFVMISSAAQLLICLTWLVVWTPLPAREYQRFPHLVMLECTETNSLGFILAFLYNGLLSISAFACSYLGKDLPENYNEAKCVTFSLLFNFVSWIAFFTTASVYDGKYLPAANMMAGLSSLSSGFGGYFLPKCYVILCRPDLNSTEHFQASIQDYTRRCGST
T1 sequence (Q7RTX0 21-852): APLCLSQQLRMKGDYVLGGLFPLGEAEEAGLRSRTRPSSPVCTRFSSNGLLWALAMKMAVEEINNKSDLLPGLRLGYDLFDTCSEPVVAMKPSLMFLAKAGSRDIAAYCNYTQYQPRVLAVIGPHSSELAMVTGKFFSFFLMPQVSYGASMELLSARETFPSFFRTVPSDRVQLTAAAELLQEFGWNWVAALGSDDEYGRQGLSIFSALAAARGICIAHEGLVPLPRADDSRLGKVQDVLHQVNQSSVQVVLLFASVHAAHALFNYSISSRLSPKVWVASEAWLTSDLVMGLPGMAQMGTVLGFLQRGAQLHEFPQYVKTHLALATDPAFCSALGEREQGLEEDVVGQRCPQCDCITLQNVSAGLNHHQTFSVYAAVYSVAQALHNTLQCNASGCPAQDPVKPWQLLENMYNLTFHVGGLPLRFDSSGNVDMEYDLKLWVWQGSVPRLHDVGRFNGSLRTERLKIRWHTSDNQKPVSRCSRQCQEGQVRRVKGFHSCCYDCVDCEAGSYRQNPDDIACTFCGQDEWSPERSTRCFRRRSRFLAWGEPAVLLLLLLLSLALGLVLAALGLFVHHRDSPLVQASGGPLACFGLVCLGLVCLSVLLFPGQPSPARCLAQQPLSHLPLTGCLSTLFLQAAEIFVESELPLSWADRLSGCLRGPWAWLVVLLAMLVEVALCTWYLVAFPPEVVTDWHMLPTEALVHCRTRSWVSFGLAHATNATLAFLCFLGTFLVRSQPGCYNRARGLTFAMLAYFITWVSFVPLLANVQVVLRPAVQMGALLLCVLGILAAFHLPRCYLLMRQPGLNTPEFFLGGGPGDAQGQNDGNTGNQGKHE
Assay: In vitro hT1R1/hT1R3 umami taste receptor activation assay (FLIPR, dose response)
Format: cell-based
Settings: read-out: EC50 for activation of a hT1R1/hT1R3 umami receptor expressed in an HEK293 cell line
From the text: In order to identify new savory flavoring agents and enhancers, including compounds with savory agonist and enhancer activities (dual activity), the compounds of Formula (I) were screened in primary assays and secondary assays including compound dose response and enhancement assay. In a primary assay for potential ability to modulate umami taste, amide compounds of Formula (I) that can be either savory flavoring agents in their own right or flavor enhancers of MSG are identified and scores of their activities are given as percentage of the maximum MSG intensity (%). In compound dose response, an EC50 is calculated to reflect the potency of the compound as a savory agonist or enhancer.
An HEK293 cell line derivative (See e.g., Chandrashekar, et al., Cell (2000) 100: 703-711) which stably expresses Gα15 and hT1R1/hT1R3 under an inducible promoter (see WO 03/001876 A2) was used to identify compounds with savory tasting properties.
For dose-responses analysis, stimuli were presented in duplicates at 10 different concentrations ranging from 1.5 nM to 30 μM. Activities were normalized to the response obtained with 60 mM monosodium glutamate, a concentration that elicits maximum receptor response. […] Identical results were obtained when analyzing the dose-response data using commercially available software for non-linear regression analysis such as GraphPad PRISM (San Diego, Calif.).

SMILES	EC50
CCC(CC(C)C)NC(=O)c1cc2cc(OC)ccc2o1 (centres unmarked) [Example 31, 5-methoxy-N-(5-methylhexan-3-yl)benzofuran-2-carboxamide]	1040 nM
COC(=O)[C@@H](CC(C)C)NC(=O)c1cc2cc(Cl)ccc2o1 [Example 32]	820 nM
CCCC(CCC)NC(=O)c1cc2ccccc2s1 [Example 34, N-(heptan-4-yl)benzo[b]thiophene-2-carboxamide]	210 nM
CCCC(CCC)NC(=O)c1cc2ccccc2[nH]1 [Example 35, N-(heptan-4-yl)-1H-indole-2-carboxamide]	6800 nM
COC(=O)[C@@H](CC(C)C)NC(=O)c1cc2cc(C)ccc2[nH]1 [Example 36, (R)-methyl 4-methyl-2-(5-methyl-1H-indole-2-carboxamido)pentanoate]	6600 nM
CCCC(CCC)NC(=O)c1ccc2[nH]cnc2c1 [Example 38, N-(heptan-4-yl)-1H-benzo[d]imidazole-5-carboxamide]	18600 nM
CCCC(CCC)NC(=O)c1ccc2ocnc2c1 [Example 39, benzooxazole-5-carboxylic acid (1-propylbutyl)amide]	1910 nM
CCCC(CCC)NC(=O)c1ccc2oc(C)nc2c1 [Example 40, 2-Methyl-benzooxazole-5-carboxylic acid (1-propyl-butyl)-amide]	330 nM
CCCC(CCC)NC(=O)c1ccc2nc(C)oc2c1 [Example 46, 2-Methyl-benzooxazole-6-carboxylic acid (1-propyl-butyl)-amide]	2100 nM
CCCC(CCC)NC(=O)c1ccc(C)c(SC)c1 [Example 48, 4-methyl-3-methylsulfanyl-N-(1-propylbutyl)benzamide]	210 nM
CCCC(CC(C)C)NC(=O)c1ccc(OC)c(C)c1 (centres unmarked) [Example 52, 4-methoxy-3-methyl-N-(2-methylheptan-4-yl)benzamide]	100 nM
CCCC(NC(=O)c1ccc(OC)c(C)c1)c1ccc(OC)cc1 (centres unmarked) [Example 54, 4-methoxy-N-(1-(4-methoxyphenyl)butyl)-3-methylbenzamide]	3140 nM
COc1ccc(C(=O)N[C@H](CC(C)C)c2nc(C)no2)cc1C [Example 55, (R)-4-methoxy-3-methyl-N-(3-methyl-1-(3-methyl-1,2,4-oxadiazol-5-yl)butyl)benzamide]	5400 nM
COC(=O)[C@@H](CC(C)C)NC(=O)c1ccc(OC)c(F)c1 [Example 60, (R)-methyl 2-(3-fluoro-4-methoxybenzamido)-4-methylpentanoate]	300 nM
COC(=O)[C@@H](CC(C)C)NC(=O)c1ccc(OC)c(Cl)c1 [Example 62, (R)-methyl 2-(3-chloro-4-methoxybenzamido)-4-methylpentanoate]	80 nM
CCCC(CCC)NC(=O)c1ccc(Cl)c(C)c1 [Example 64, 4-Chloro-3-methyl-N-(1-propyl-butyl)-benzamide]	800 nM
CCCC(CCC)NC(=O)c1ccc(OC)c(OC)c1 [Example 65, 3,4-Dimethoxy-N-(1-propyl-butyl)-benzamide]	360 nM
CCCC(NC(=O)c1ccc(C)c(C)c1)C(C)C (centres unmarked) [Example 68, 3,4-dimethyl-N-(2-methylhexan-3-yl)benzamide]	110 nM
CCCC(CC(C)C)NC(=O)c1ccc(C)c(C)c1 (centres unmarked) [Example 69, 3,4-dimethyl-N-(2-methylheptan-4-yl)benzamide]	130 nM
COCOC[C@@H](CC(C)C)NC(=O)c1ccc(C)c(C)c1 [Example 72, (R)-N-(1-(methoxymethoxy)-4-methylpentan-2-yl)-3,4-dimethylbenzamide]	1060 nM
COCC(NC(=O)c1ccc(C)c(C)c1)C(C)C (centres unmarked) [Example 73, N-(1-Methoxymethyl-2-methyl-propyl)-3,4-dimethyl-benzamide]	870 nM
COC(=O)[C@@H](CC(C)C)NC(=O)c1ccc(SC)cc1OC [Example 74, (R)-methyl 2-(2-methoxy-4-(methylthio)benzamido)-4-methylpentanoate]	15800 nM
CCC(CC)NC(=O)/C=C/c1ccc(OCCO)cc1 [Example 76, N-(1-Ethyl-propyl)-3-[4-(2-hydroxy-ethoxy)-phenyl]-acrylamide]	5800 nM

Continued, values first:

EC50	SMILES
1140 nM	COC(=O)[C@@H](CC1CCCCC1)NC(=O)c1cc2cc(OC)ccc2o1 [Example 30, (R)-methyl 3-cyclohexyl-2-(5-methoxybenzofuran-2-carboxamido)propanoate]
1180 nM	COC(=O)[C@@H](CC(C)C)NC(=O)c1oc2ccccc2c1C [Example 33, (R)-methyl 4-methyl-2-(3-methylbenzofuran-2-carboxamido)pentanoate]
1790 nM	CCCC(CCC)NC(=O)c1cc2ccccc2n1C [Example 37, N-(heptan-4-yl)-1-methyl-1H-indole-2-carboxamide]
100 nM	COC(=O)[C@@H](CC(C)C)NC(=O)c1ccc(C)c(SC)c1 [Example 49, (R)-methyl 4-methyl-2-(4-methyl-3-(methylthio)benzamido)pentanoate]
160 nM	COC(=O)[C@@H](CC(C)C)NC(=O)c1ccc(SC)cc1 [Example 50, (R)-methyl 4-methyl-2-(4-(methylthio)benzamido)pentanoate]
90 nM	CCC(CC(C)C)NC(=O)c1ccc(OC)c(C)c1 (centres unmarked) [Example 53, 4-methoxy-3-methyl-N-(5-methylhexan-3-yl)benzamide]
170 nM	CCCC(CCC)NC(=O)c1ccc(OCC)c(C)c1 [Example 56, 4-ethoxy-N-(heptan-4-yl)-3-methylbenzamide]
690 nM	CCCC(COC)NC(=O)c1ccc(OCC)c(C)c1 (centres unmarked) [Example 57, 4-ethoxy-N-(1-methoxypentan-2-yl)-3-methylbenzamide]
920 nM	CCCC(CCC)NC(=O)c1ccc(O)c(C)c1 [Example 58, 4-hydroxy-3-methyl-N-(1-propyl-butyl)-benzamide]
210 nM	CCCC(CCC)NC(=O)c1ccc(OCCOC)c(C)c1 [Example 59, N-(heptan-4-yl)-4-(2-methoxyethoxy)-3-methylbenzamide]
560 nM	CCC(CC)NC(=O)c1ccc(OC)c(Cl)c1 [Example 61, 3-chloro-4-methoxy-N-(pentan-3-yl)benzamide]
2500 nM	COc1ccc(C(=O)N[C@H](C)c2ccccc2)cc1Cl [Example 63, (R)-3-chloro-4-methoxy-N-(1-phenylethyl)benzamide]
320 nM	COC(=O)[C@@H](CC(C)C)NC(=O)c1ccc(F)c(C)c1 [Example 66, (R)-methyl 2-(4-fluoro-3-methylbenzamido)-4-methylpentanoate]
170 nM	CCC(CC(C)C)NC(=O)c1ccc(C)c(C)c1 (centres unmarked) [Example 70, 3,4-dimethyl-N-(5-methylhexan-3-yl)benzamide]
240 nM	CCC(CC(C)C)NC(=O)/C=C/c1ccc(OC)cc1 (centres unmarked) [Example 75]
